Values joined by “and” are separate entries in the source; they are usually repeats but may differ in a detail not shown here. Equal entries are not always repeated. Toxic doses and inconclusive results are not listed. Rule for the calls: active = survival T/C of 150% or more; inactive = T/C below 125% in these data.
System: BDF1 mice, P388 leukemia ip, median survival T/C
Assay: NCI In Vivo Anticancer Drug Screen. Data for tumor model P388 Leukemia (intraperitoneal) in B6D2F1 (BDF1) mice
Settings: endpoint: median survival time, higher = longer survival
Outline: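 Transplantable tumour in mice; compound vs vehicle dosing; survival scored; ratio of treated to control reported.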

[1] = dose: 3.12 mg/kg/injection, schedule: Q01DX009 (ip), vehicle: saline
[2] = dose: 6.25 mg/kg/injection, schedule: Q01DX009 (ip), vehicle: saline
[3] = dose: 12.5 mg/kg/injection, schedule: Q01DX009 (ip), vehicle: saline
[4] = dose: 50.0 mg/kg/injection, schedule: Q01DX009 (ip), vehicle: saline with Tween-80
[5] = dose: 200.0 mg/kg/injection, schedule: Q01DX009 (ip), vehicle: saline with Tween-80
[6] = dose: 50.0 mg/kg/injection, schedule: Q01DX009 (ip), vehicle: Klucel (hydroxypropylcellulose) (HPC)
[7] = dose: 100.0 mg/kg/injection, schedule: Q01DX009 (ip), vehicle: Klucel (hydroxypropylcellulose) (HPC)
[8] = dose: 25.0 mg/kg/injection, schedule: Q01DX009 (ip), vehicle: saline
[9] = dose: 50.0 mg/kg/injection, schedule: Q01DX009 (ip), vehicle: saline
[10] = dose: 25.0 mg/kg/injection, schedule: Q01DX009 (ip), vehicle: Klucel (hydroxypropylcellulose) (HPC)

Measured: T/C

CC(=O)c1ccc2c(c1)N(CCCN1CCN(CCO)CC1)c1ccccc1S2
inactive: [1] 107 % of control | [2] 96 % of control | [3] 94 % of control

COC(CN1C(=O)CSC1=S)OC
inactive: dose: 25.0 mg/kg/injection, schedule: Q01DX009 (ip), vehicle: saline with Tween-80 100 % of control | [4] 104 % of control and 117 % of control | [5] 109 % of control

O=[N+]([O-])c1ccc(N2CCN(c3ccc([N+](=O)[O-])c4c3no[n+]4[O-])CC2)c2c1no[n+]2[O-]
inactive: dose: 15.0 mg/kg/injection, schedule: Q04DX003 (ip), vehicle: saline with Tween-80 111 % of control | dose: 30.0 mg/kg/injection, schedule: Q04DX003 (ip), vehicle: saline with Tween-80 106 % of control | dose: 60.0 mg/kg/injection, schedule: Q04DX003 (ip), vehicle: saline with Tween-80 101 % of control

O=c1cc(CO)[nH]cc1O
inactive: dose: 177.0 mg/kg/injection, schedule: Q01DX009 (ip), vehicle: Klucel (hydroxypropylcellulose) (HPC) 119 % of control

O=[N+]([O-])c1ccc(/C=C/C=C/c2ccc(Cl)cc2Cl)cc1
inactive: [6] 104 % of control | [7] 113 % of control | dose: 100.0 mg/kg/injection, schedule: Q04DX003 (ip), vehicle: Klucel (hydroxypropylcellulose) (HPC) 104 % of control | dose: 200.0 mg/kg/injection, schedule: Q01DX009 (ip), vehicle: Klucel (hydroxypropylcellulose) (HPC) 90 % of control | dose: 200.0 mg/kg/injection, schedule: Q04DX003 (ip), vehicle: Klucel (hydroxypropylcellulose) (HPC) 95 % of control | dose: 400.0 mg/kg/injection, schedule: Q04DX003 (ip), vehicle: Klucel (hydroxypropylcellulose) (HPC) 91 % of control

COCCn1c2c(n/c(=C(\O)OC)c1=N)CCCC=2
inactive: [4] 106 % of control | dose: 100.0 mg/kg/injection, schedule: Q01DX009 (ip), vehicle: saline with Tween-80 116 % of control | [5] 97 % of control

CC(=O)O[C@@]1(C)C(=O)OCC2=CCN3CC[C@@H](OC(=O)[C@H](C)[C@]1(C)OC(C)=O)[C@@H]23
inactive: dose: 25.0 mg/kg/injection, schedule: Q01DX010 (ip), vehicle: carboxymethylcellulose (CMC) 105 % of control | dose: 50.0 mg/kg/injection, schedule: Q01DX010 (ip), vehicle: carboxymethylcellulose (CMC) 90 % of control

CS(C)=O.CS(C)=O.CS(C)=O.[Cl][Rh]([Cl])[Cl]
inactive: [1] 114 % of control | [2] 114 % of control | [3] 116 % of control | [8] 104 % of control and 116 % of control | [9] 116 % of control | dose: 50.0 mg/kg/injection, schedule: Q04DX003 (ip), vehicle: saline 100 % of control | dose: 100.0 mg/kg/injection, schedule: Q04DX003 (ip), vehicle: saline 109 % of control

COc1cccc(CNc2ccc(C)c(Cl)c2)c1OC
inactive: dose: 12.5 mg/kg/injection, schedule: Q01DX009 (ip), vehicle: gum acacia 92 % of control | dose: 25.0 mg/kg/injection, schedule: Q01DX009 (ip), vehicle: gum acacia 107 % of control | dose: 50.0 mg/kg/injection, schedule: Q01DX009 (ip), vehicle: gum acacia 103 % of control | dose: 100.0 mg/kg/injection, schedule: Q04DX003 (ip), vehicle: gum acacia 91 % of control | dose: 200.0 mg/kg/injection, schedule: Q04DX003 (ip), vehicle: gum acacia 95 % of control | dose: 400.0 mg/kg/injection, schedule: Q04DX003 (ip), vehicle: gum acacia 95 % of control

[Cl][Pt+2]([Cl])([Cl])[Cl].c1ccc(C2CC[N-]CC2)cc1.c1ccc(C2CC[N-]CC2)cc1
inactive: [10] 121 % of control | dose: 25.0 mg/kg/injection, schedule: Q01DX009 (ip), vehicle: water 103 % of control and 122 % of control | [6] 112 % of control | dose: 50.0 mg/kg/injection, schedule: Q01DX009 (ip), vehicle: water 112 % of control | dose: 50.0 mg/kg/injection, schedule: Q04DX003 (ip), vehicle: water 109 % of control | [7] 121 % of control | dose: 100.0 mg/kg/injection, schedule: Q01DX009 (ip), vehicle: water 90 % of control | dose: 100.0 mg/kg/injection, schedule: Q04DX003 (ip), vehicle: water 105 % of control | dose: 200.0 mg/kg/injection, schedule: Q04DX003 (ip), vehicle: water 98 % of control | dose: 400.0 mg/kg/injection, schedule: Q04DX003 (ip), vehicle: water 89 % of control

COc1cc(CC#N)ccc1C
inactive: [10] 92 % of control

CCN(CC)C(C)CN1c2ccccc2Sc2ccccc21 (stereo not drawn)
inactive: [8] 100 % of control | [9] 112 % of control | dose: 100.0 mg/kg/injection, schedule: Q01DX009 (ip), vehicle: saline 116 % of control

— PubChem BioAssay AID328 (DTP/NCI, 2004)
